Results: patent US11918621B2, “Methods and treatments using toll-like receptor agonists to mitigate hematopoietic myeloid loss, increase gastrointestinal recovery and reduce tumor growth” (priority 2017, dated 2024)
“Also recorded” adds a separate entry of the source. Peptide text beside a SMILES is read from it. * marks the point of attachment. X1 = CCCCCCCCCCCCCCCC(=O)OCC(C*)OC(=O)CCCCCCCCCCCCCCC

Assays:
[1] = tested on: mice treated with FSL-1 post TBI; assay: Late effects of radiation: long-term survivors, MRI of tissues; assay type: in vivo; details: survivors of more than 600 days
Excerpt: MRI was used to detect multiple tissues in these survivors, such as brain, gut, kidney or spleen. […] FSL-1 is found to accelerate hematopoietic cell recovery in bone marrow, spleen and periphery, and augments systemic levels of hematopoiesis stimulating factors (G-CSF).

B16 melanoma tumor cells = assay: B16 melanoma tumor model with cisplatin chemotherapy
Description: The impact of combining FSL-1 treatment with chemotherapy as a therapeutic against cancer was also tested. In this study, B16 melanoma tumor cells (50,000) in matrigel matrix were implanted into the flank (SC) of wild type animals and were allowed to grow 10 days to palpation (˜3-5 mm in diameter). Mice were then treated with chemotherapy agent cisplatin (intravenous IV, 100 μg/mouse) with and without FSL-1 (SC, 40 μg/mouse). Changes in tumor volume (ellipsoidal volume calculation of ½ width*width*length, mm^3) were monitored along with changes in body weight and condition.

[2] = tested on: irradiated male C57BL/6 mice; assay: Radiomitigation activity of TLR2 ligands after TBI; assay type: in vivo; details: IP injection 24 hr post TBI
Description: The radiomitigation activity of TLR2 ligands was delineated (FIGS. 1C and 1D), including FSL-1, by irradiating male C57BL/6 mice and treating (IP injections) with either FSL-1, Pam2CSK4 (Pam2Cys-SKKKK, TLR2/6 ligand), or Pam3CSK4 (Pam3Cys-SKKKK, TLR1/2 ligand) at 24 hours (hr) post TBI.

[3] = tested on: C57BL/6 mice exposed to 9.2 Gy gamma radiation (total body irradiation); assay: Survival and clinical score after lethal total body irradiation, TLR ligands given IP; assay type: in vivo; details: 9.2 Gy TBI, IP injection one day after radiation, survival over 30 days
Description: To examine the role of TLR ligands as radio-mitigators, FSL-1 (TLR2/6 ligand) was first compared with other TLR ligands (FIGS. 1A and 1B). In this experiment, C57BL/6 mice were exposed to 9.2 Gy gamma radiation (total body irradiation, or TBI) using 137-Cesium irradiator and then the mice were treated with TLR ligands via intraperitoneal (IP) injections one day after radiation. The impact of CpG-ODN2395 (CpG, TLR9 agonist), Flagellin FliC (Fla, TLR5 agonist), MPLA (TLR4 agonist) or FSL-1 (Pam2[…], TLR2/6 agonist) in comparison to mice treated with physiological water (no treatment, NT) was examined. Survival was monitored over 30 days and clinical scores were recorded. […] Eight independent experiments have been completed, each showing the survival rate of FSL-1-treated mice ranged from 50% to 100% with the mean rate of 80%. The lowest one is presented herein.
The Clinical Score is based on changes to body condition that included body weight, body temperature, physical appearance, grooming, posture, activity/behavior, appetite and hydration. Supplementation with wet feed, subcutaneous fluids, long sipper tubes, were provided as needed.

irradiated mice = details: only when injected subcutaneously daily from day 1 to 16 (16 doses); cited from earlier work

With `CCCCCCCCCCCCCCCC(=O)OCC(CSC[C@H](N)C(=O)NCC(=O)N[C@@H](CC(=O)O)C(=O)N1CCC[C@H]1C(=O)N[C@@H](CCCCN)C(=O)N[C@@H](Cc1c[nH]cn1)C(=O)N1CCC[C@H]1C(=O)N[C@@H](CCCCN)C(=O)N[C@@H](CO)C(=O)N[C@@H](Cc1ccccc1)C(=O)O)OC(=O)CCCCCCCCCCCCCCC` (stereo partly shown) [FSL-1] (H-C(X1)GDPKHPKSF-OH) the “MRI of tissues (brain, gut, kidney, spleen)” value [1] was “no physiologic changes”, the “symptoms of disease in long-term survivors” value [1] was “no symptoms of any diseases; also recorded: without any symptoms of leukemia or other diseases” and the body weight (B16 melanoma tumor cells; mouse, in vivo) was “maintained weight for nearly 2 weeks following treatment”.

In the case of Pam2Cys-SKKKK [Pam2CSK4], the survival [2] is reported as “promoted survival”.

With Pam3Cys-SKKKK [Pam3CSK4] the survival [2] was “promoted survival”.

For `N.N.[Cl][Pt][Cl]` [cisplatin], the “animals reaching the 2 cm tumor diameter endpoint” value (B16 melanoma tumor cells; by day 19) was “two”, the body condition (B16 melanoma tumor cells; mouse, in vivo) was “reduced body condition” and the body weight (B16 melanoma tumor cells; mouse, in vivo) was “dramatically lost weight after day 19”.

B1: Flagellin FliC: TLR5 agonist (protein, UniProt P06179 2-495, looked up)
Flagellin: AQVINTNSLSLLTQNNLNKSQSALGTAIERLSSGLRINSAKDDAAGQAIANRFTANIKGLTQASRNANDGISIAQTTEGALNEINNNLQRVRELAVQSANSTNSQSDLDSIQAEITQRLNEIDRVSGQTQFNGVKVLAQDNTLTIQVGANDGETIDIDLKQINSQTLGLDTLNVQQKYKVSDTAATVTGYADTTIALDNSTFKASATGLGGTDQKIDGDLKFDDTTGKYYAKVTVTGGTGKDGYYEVSVDKTNGEVTLAGGATSPLTGGLPATATEDVKNVQVANADLTEAKAALTAAGVTGTASVVKMSYTDNNGKTIDGGLAVKVGDDYYSATQNKDGSISINTTKYTADDGTSKTALNKLGGADGKTEVVSIGGKTYAASKAEGHNFKAQPDLAEAAATTTENPLQKIDAALAQVDTLRSDLGAVQNRFNSAITNLGNTVNNLTSARSRIEDSDYATEVSNMSRAQILQQAGTSVLAQANQVPQNVLSLLR
With B1 the “protection from radiation-induced death” value [3] was “did not show any protection”.

B2: G-CSF: granulocyte colony-stimulating factor, approved radiation countermeasure (protein, UniProt P09919 31-207, looked up)
Granulocyte …: TPLGPASSLPQSFLLKCLEQVRKIQGDGAALQEKLVSECATYKLCHPEELVLLGHSLGIPWAPLSSCPSQALQLAGCLSQLHSGLFLYQGLLQALEGISPELGPTLDTLQLDVADFATTIWQQMEELGMAPALQPTQGAMPAFASAFQRRAGGVLVASHLQSFLEVSYRVLRHLAQP
For B2, the “survival of irradiated mice” value (irradiated mice) is given as “increase the survival”.
